Measurements from paper PMC10051310, “Antiproliferative Activity, Multikinase Inhibition, Apoptosis- Inducing Effects and Molecular Docking of Novel Isatin–Purine Hybrids” (Medicina, 2023).

Columns and labels:
HepG2 cells [1] = experiment: Flow cytometry cell cycle analysis (propidium iodide); format: cell-based, human; settings: HepG2, 9.61 μM, 24 h
Experimental: In addition, the cell cycle progression assay as described by Wang et al. was used to investigate the effect of compound 15 in HepG2 cells. The biological effect of compound 15 was measured by treating HepG2 cells with 9.61 μM of the compound for 24 h. The compound’s effect on cell cycle distribution was analyzed by comparing with untreated control cells (Table 3, Figure 6).
Flow cytometry analysis was carried out using an ab139418 Propidium Iodide flow cytometry kit/BD to detect the effect of the synthesized compound 15 on cell cycle distribution. First, HepG2 cell were seeded in 6-well plates at a density of 2 × 10^5/well and incubated for 24 h. HepG2 cells were then treated with 9.61 µM of compound 15 for 24 h. The treated cells were then fixed in 70% ethanol for 12 h at 4 °C, rinsed with cold PBS, incubated with 100 μL RNase A for 0.5 h at 37 °C, and stained with Propidium Iodide (400 μL) in the dark at RT for an extra 0.5 h. The stained cells were determined utilizing Epics XLMCL™ flow cytometer equipment (Beckman Coulter, Apeldoorn, Netherlands), and the results were collected and analyzed using Flowing software (version 2.5.1, Turku Centre for Biotechnology, Turku, Finland).

MCF-7 = experiment: MTT cytotoxicity assay, MCF-7; settings: Homo sapiens, MCF7, 24 h, read-out: In Vitro Cytotoxicity IC50 MCF-7
Experimental: (§4) Sunitinib, a well-known multi-kinase inhibitor, was used as a reference compound.
(§5) After incubation for 48 h, the cells were treated with different concentrations of the synthesized hybrid compounds for 24 h. After the addition of 20 μL MTT (5 mg/mL), the plates were incubated for 4 h and then 100 μL Dimethyl sulfoxide (DMSO) was added to each well to dissolve the insoluble purple formazan formed. […] The relative cell viability percentage was calculated as (A570 of treated samples/A570 of untreated sample) × 100.

HepG2 cells [2] = experiment: Annexin V/propidium iodide apoptosis flow cytometry; format: cell-based, human; settings: HepG2, 9.61 μM, 24 h
Experimental: On the other hand, an Annexin V/propidium iodide (PI) double staining assay was conducted to identify the mode of cell death promoted by compound 15 (9.61 μM) following 24 h incubation with HepG2 cells.
Flow cytometry cell apoptosis analysis was conducted to examine the apoptotic effect of the synthesized compounds using the Annexin V-FITC cell apoptosis detection kit (Biovision, K101-100). First, HepG2 cells in a density of 2 × 10^5 were seeded in 6-well plates and incubated for 24 h. The cells were then treated with 9.61 µM compound 15 for 24 h. The treated cells were then detached with trypsin (5 min, 37 °C), collected by centrifugation (5 min, 300× g), washed twice with PBS, and resuspended in 0.1 mL of a 1X binding buffer. After that, the cells were double-stained with 5 μL Annexin V-FITC and 5 μL PI in the dark at room temperature for 15 min. The stained cells were evaluated using an Epics XL-MCL™ Flow Cytometer (Beckman Coulter, Apeldoorn, Netherlands) with an excitation wavelength of 488 nm and an emission wavelength of 530 nm, and the data were interpreted using the Flowing software (version 2.5.1, Turku Centre for Biotechnology, Turku, Finland).

VEGFR2 = target: T1, VEGFR2 (Homo sapiens, UniProt P35968); experiment: In vitro VEGFR-2 enzyme assay (ELISA kit); format: biochemical
T1 construct: purchased
T1 sequence (P35968 20-1356): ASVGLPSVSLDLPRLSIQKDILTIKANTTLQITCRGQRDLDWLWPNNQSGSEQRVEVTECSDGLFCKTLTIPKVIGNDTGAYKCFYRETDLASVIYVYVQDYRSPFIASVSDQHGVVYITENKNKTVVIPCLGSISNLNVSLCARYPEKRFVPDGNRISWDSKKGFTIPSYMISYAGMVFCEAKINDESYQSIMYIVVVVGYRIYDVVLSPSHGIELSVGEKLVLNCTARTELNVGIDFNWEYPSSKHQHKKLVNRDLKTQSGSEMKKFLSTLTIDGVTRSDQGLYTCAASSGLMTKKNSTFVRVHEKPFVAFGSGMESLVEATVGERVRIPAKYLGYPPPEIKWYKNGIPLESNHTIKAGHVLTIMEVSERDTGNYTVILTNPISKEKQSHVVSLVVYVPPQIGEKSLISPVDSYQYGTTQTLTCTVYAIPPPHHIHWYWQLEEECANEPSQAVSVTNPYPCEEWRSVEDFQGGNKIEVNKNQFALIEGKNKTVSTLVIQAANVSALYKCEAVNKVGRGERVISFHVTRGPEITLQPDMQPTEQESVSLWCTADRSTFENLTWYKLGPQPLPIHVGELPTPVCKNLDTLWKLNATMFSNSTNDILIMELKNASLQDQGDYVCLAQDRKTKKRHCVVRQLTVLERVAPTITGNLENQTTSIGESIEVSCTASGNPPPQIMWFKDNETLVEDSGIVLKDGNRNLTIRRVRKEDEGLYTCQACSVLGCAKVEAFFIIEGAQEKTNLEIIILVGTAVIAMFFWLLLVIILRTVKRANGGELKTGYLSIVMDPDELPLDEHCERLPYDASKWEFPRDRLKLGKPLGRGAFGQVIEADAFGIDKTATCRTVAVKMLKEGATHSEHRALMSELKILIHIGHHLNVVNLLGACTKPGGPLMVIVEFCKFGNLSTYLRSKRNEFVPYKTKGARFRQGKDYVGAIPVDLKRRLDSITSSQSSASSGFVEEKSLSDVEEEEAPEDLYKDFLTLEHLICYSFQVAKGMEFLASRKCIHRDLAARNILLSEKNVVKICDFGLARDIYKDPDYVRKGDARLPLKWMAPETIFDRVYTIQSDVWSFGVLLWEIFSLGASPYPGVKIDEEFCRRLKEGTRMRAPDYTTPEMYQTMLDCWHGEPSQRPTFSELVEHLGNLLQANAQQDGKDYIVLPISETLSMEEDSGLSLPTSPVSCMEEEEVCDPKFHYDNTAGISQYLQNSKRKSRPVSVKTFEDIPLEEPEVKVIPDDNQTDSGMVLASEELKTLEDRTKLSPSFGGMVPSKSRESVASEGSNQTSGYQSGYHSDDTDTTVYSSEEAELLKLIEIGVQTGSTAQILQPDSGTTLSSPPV
Experimental: (§1) A human ELISA kit (Enzyme-Linked Immunosorbent Assay) for each of the above-mentioned protein kinase enzymes was used in this assay. […] The mixture was then incubated at room temperature for 2.5 h, after which the wells were washed and 100 μL of the prepared biotin antibody was added and incubated for 1 h at room temperature. After another washing step, 100 μL of streptavidin solution was added and incubated for 45 min at room temperature. The wells were then washed for a third time and 100 μL of TMB Substrate reagent was added and incubated for 30 min at room temperature. Finally, 50 μL of the stop solution was added, and the absorbance was read immediately at 450 nm. A standard curve was plotted showing concentration on the X-axis and absorbance on the Y-axis.

BAX = BAX protein level ELISA in HepG2 cells; format: cell-based, human; settings: HepG2, 9.61 μM, 24 h
Experimental: (§2) In these assays, compound 15 was used at its cytotoxic concentration (9.61 μM) and incubated with HepG2 cells for 24 h.
(§3) HepG2 cells were seeded in 96-well plates in triplicate and incubated for 24 h. The incubated cells were then treated with compound 15 at different concentrations. Cells treated with 0.1% DMSO (V/V) served as control. After 24 h incubation, caspase 3 and 9, BAX and Bcl-2 levels were determined using ELISA assay kits KHO1091 (Invitrogen^TM, Grand Island, NY, USA), EIA-4860 (DRU International INC., Mountainside, NJ, USA), EIA-4487 (DRU International INC., Mountainside, NJ, USA) and 99-0042 (Invitrogen^TM, Grand Island, NY, USA), respectively, according to the manufacturers’ procedures.

HeLa = experiment: MTT cytotoxicity assay, HeLa; settings: Homo sapiens, 24 h, read-out: In Vitro Cytotoxicity IC50 HeLa
Experimental: as §4, §5

Caspase 3 = Caspase 3 protein level ELISA in HepG2 cells; format: cell-based, human; settings: HepG2, 9.61 μM, 24 h
Experimental: as §2, §3

[3] = test system: HepG2, MCF-7, MDA-MB-231 and HeLa cell lines; experiment: MTT cytotoxicity assay, summary over all four cell lines; settings: Homo sapiens, read-out: IC50 against all tested cell lines
Experimental: as §4, §5

CDK2 = target: T2, CDK2 (Homo sapiens, UniProt P24941); experiment: In vitro CDK2 enzyme assay (ELISA kit); format: biochemical
T2 construct: purchased
Experimental: as §1

MDA-MB-231 = experiment: MTT cytotoxicity assay, MDA-MB-231; settings: Homo sapiens, MDA-MB-231, 24 h, read-out: In Vitro Cytotoxicity IC50 MDA-MB-231
Experimental: as §4, §5

HepG2 = experiment: MTT cytotoxicity assay, HepG2; settings: Homo sapiens, HepG2, 24 h, read-out: In Vitro Cytotoxicity IC50 HepG2
Experimental: as §4, §5

EGFR = target: T3, EGFR (Homo sapiens, UniProt P00533); experiment: In vitro EGFR enzyme assay (ELISA kit); format: biochemical
T3 construct: purchased
T3 sequence (P00533 25-1210): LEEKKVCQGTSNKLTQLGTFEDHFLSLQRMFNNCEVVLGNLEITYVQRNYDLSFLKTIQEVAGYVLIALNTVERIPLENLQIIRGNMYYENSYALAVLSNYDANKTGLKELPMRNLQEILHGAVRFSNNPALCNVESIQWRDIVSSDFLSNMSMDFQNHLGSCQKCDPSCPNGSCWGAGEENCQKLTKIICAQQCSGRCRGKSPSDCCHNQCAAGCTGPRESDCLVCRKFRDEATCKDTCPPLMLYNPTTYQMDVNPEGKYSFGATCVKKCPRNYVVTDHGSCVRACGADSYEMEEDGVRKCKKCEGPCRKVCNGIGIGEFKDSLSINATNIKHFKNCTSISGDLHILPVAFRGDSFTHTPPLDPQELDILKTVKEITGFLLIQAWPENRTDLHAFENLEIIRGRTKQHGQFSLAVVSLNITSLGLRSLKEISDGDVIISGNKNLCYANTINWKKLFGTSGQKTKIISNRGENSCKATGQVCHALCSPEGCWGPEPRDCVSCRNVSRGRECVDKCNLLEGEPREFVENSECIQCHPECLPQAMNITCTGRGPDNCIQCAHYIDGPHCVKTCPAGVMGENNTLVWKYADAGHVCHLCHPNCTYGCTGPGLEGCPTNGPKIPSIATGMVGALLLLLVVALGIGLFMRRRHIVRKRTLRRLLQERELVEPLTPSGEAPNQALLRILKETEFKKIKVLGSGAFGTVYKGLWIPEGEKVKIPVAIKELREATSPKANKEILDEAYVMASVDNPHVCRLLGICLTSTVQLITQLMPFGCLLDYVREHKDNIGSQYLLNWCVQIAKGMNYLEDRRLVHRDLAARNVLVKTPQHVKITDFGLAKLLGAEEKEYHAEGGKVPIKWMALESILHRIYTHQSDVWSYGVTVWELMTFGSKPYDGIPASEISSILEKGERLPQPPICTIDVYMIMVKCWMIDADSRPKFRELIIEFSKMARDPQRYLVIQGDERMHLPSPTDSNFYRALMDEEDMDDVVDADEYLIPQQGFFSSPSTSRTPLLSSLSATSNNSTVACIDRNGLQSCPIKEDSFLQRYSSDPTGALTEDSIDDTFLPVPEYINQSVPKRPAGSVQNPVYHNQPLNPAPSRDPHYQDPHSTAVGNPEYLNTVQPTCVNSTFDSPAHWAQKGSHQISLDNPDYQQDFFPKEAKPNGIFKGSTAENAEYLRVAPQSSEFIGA
Experimental: as §1

Bcl-2 = Bcl-2 protein level ELISA in HepG2 cells; format: cell-based, human; settings: HepG2, 9.61 μM, 24 h
Experimental: as §2, §3

Her2 = target: T4, Her2 (Homo sapiens, UniProt P04626); experiment: In vitro Her2 enzyme assay (ELISA kit); format: biochemical
T4 construct: purchased
T4 sequence (P04626 23-1255): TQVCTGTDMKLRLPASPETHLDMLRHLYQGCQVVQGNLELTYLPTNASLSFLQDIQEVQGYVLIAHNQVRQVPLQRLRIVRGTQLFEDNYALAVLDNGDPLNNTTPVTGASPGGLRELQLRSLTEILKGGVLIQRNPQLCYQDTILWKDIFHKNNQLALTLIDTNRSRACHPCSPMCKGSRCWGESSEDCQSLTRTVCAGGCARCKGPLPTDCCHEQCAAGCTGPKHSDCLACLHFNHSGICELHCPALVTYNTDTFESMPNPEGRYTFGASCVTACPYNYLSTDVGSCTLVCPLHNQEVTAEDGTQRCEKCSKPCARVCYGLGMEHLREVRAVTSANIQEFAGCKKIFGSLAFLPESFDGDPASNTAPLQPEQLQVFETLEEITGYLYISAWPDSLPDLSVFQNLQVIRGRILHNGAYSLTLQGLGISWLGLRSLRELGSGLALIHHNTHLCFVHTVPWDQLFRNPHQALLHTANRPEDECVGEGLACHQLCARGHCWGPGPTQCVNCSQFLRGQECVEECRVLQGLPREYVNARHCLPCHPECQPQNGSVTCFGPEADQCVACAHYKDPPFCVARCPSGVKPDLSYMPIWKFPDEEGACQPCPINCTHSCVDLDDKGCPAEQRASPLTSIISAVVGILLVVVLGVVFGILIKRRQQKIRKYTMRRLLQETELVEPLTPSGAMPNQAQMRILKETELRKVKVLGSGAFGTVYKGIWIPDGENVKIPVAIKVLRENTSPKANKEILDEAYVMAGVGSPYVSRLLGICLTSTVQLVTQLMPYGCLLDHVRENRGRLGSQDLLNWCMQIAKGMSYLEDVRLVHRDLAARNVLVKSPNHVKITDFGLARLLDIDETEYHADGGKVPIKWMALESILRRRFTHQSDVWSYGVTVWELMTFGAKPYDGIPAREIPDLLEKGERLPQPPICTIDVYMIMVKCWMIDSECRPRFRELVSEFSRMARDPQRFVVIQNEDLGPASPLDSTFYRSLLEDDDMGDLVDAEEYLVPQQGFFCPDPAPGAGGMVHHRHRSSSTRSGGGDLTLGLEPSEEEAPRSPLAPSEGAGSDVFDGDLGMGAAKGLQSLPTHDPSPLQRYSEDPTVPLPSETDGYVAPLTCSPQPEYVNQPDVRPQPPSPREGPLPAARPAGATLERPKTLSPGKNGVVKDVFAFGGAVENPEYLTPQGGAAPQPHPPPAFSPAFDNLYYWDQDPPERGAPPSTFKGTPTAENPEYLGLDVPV
Experimental: as §1

Caspase 9 = Caspase 9 protein level ELISA in HepG2 cells; format: cell-based, human; settings: HepG2, 9.61 μM, 24 h
Experimental: as §2, §3

## COc1ccc2c(c1)/C(=N\Nc1ncnc3[nH]cnc13)C(=O)N2 [Compound 15, (E)-3-(2-(9H-purin-6-yl)hydrazineylidene)-5-methoxyindolin-2-one]
HepG2 cells [1]
  accumulation at pre-G1 compared to control cells: 10 fold
HepG2 cells [1]; control 2.02
  Cell Cycle Distribution (%) % Pre-G1: 21.47%
HepG2 cells [1]; control 17.45
  Cell Cycle Distribution (%) % G2/M: 6.38%
HepG2 cells [1]; control 38.16
  Cell Cycle Distribution (%) % S: 42.44%
HepG2 cells [1]; control 44.39
  Cell Cycle Distribution (%) % G0–G1: 51.18%
MCF-7
  IC50: 10.8 ± 0.9 µM
HepG2 cells [2]; control 0.19%
  Apoptosis: Late: 12.58%
HepG2 cells [2]; control 0.38%
  Apoptosis: Early: 1.86%
HepG2 cells [2]; control 1.45%
  Apoptosis: Necrosis: 7.03%
HepG2 cells [2]; Homo sapiens, control 97.98%, read-out: Apoptosis: Viable
  viability at 9.61 µM: 78.5%
VEGFR2
  IC50: 192 nM
BAX; control 83.88 ± 23
  BAX Expression: 279.1 ± 8.15 pg/mL
BAX; relative to control = 1
  BAX Fold: 3.38 fold
HeLa
  IC50: 8.93 ± 0.8 µM
Caspase 3; control 93.23 ± 15.5
  Caspase 3 Expression: 368.4 ± 20.7 pg/mL
Caspase 3; relative to control = 1
  Caspase 3 Fold: 3.95 fold
[3]
  IC50: 8.93 to 14.9 µM
CDK2
  IC50: 534 nM
MDA-MB-231
  IC50: 14.9 ± 1.2 µM
HepG2
  IC50: 9.61 ± 0.8 µM
EGFR
  IC50: 143 nM
Bcl-2; control 10.67 ± 0.83
  Bcl-2 Expression: 4.593 ± 0.22 pg/mL
Bcl-2; fold decrease versus control
  Bcl-2 protein level decrease: 2.30 fold
Bcl-2; relative to control = 1
  Bcl-2 Fold: 0.43 fold
Her2
  IC50: 150 nM
Caspase 9; control 4.52 ± 1.27
  Caspase 9 Expression: 14.07 ± 0.58 pg/mL
Caspase 9; relative to control = 1
  Caspase 9 Fold: 3.11 fold
